How the values were obtained:
Mus musculus [1] = assay: In vivo effective dose required to antagonize the apomorphine induced climbing response in mice administered intraperitoneally.; format: functional; settings: ip
[2] = target: T1, 5-hydroxytryptamine receptor 1A (Rattus norvegicus, UniProt P19327); assay: In vitro inhibitory activity against [3H]8-OH-DPAT binding to 5-hydroxytryptamine 1A receptor
T1 sequence (P19327 whole entry): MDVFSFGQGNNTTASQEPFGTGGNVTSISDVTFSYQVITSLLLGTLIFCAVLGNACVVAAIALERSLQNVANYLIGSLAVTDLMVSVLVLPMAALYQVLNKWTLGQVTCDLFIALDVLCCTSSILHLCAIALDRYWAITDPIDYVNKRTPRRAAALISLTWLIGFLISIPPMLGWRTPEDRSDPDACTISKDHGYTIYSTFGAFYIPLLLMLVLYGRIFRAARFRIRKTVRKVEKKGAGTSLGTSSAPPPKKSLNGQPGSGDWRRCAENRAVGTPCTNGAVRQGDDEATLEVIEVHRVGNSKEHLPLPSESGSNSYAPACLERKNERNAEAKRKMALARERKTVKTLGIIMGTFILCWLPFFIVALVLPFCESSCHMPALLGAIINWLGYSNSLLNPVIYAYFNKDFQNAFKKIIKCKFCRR

[3] = target: Serotonin 2 (5-HT2) receptor (Rattus norvegicus, UniProt P30994+P08909+P14842); assay: In vitro inhibitory activity against [3H]ketanserin binding to 5-hydroxytryptamine 2 receptor; format: protein assay
Mus musculus [4] = assay: In vivo effective dose required to antagonize the apomorphine induced climbing response in mice administered perorally; format: functional; settings: po
Mus musculus [5] = assay: In vivo effective dose to antagonize the apomorphine induced climbing response in mice administered intraperitoneally.; format: functional; settings: ip
Mus musculus [6] = assay: In vivo effective dose to antagonize the apomorphine induced climbing response in stereotype mouse administered intraperitoneally; format: functional; settings: ip
Mus musculus [7] = assay: In vivo effective dose to antagonize the apomorphine induced climbing response in stereotypy mouse administered perorally; format: functional; settings: po
Mus musculus [8] = assay: In vivo effective dose to induce catalepsy in mouse administered perorally.; format: functional; settings: po
Mus musculus [9] = assay: In vivo effective dose to antagonize the apomorphine induced climbing response in mice administered perorally; format: functional; settings: po
Mus musculus [10] = assay: In vivo effective dose to induce catalepsy in mouse administered perorally. Value in parentheses is 95% confidence limits.; format: functional; settings: po
Mus musculus [11] = assay: In vivo effective dose to antagonize the apomorphine induced climbing response in mice administered intraperitoneally. (value in bracket denotes 95% confidence limit); format: functional; settings: ip
Mus musculus [12] = assay: In vivo effective dose to antagonize the apomorphine induced climbing response in mice administered perorally. value in bracket denotes 95% confidence limit); format: functional; settings: po
Mus musculus [13] = assay: In vivo effective dose to antagonize the apomorphine induced climbing response in stereotype mouse administered intraperitoneally ( value in bracket indicates 95% confidence limit); format: functional; settings: ip
Mus musculus [14] = assay: In vivo effective dose to antagonize the apomorphine induced climbing response in stereotypy mouse administered perorally Value in parentheses is 95% confidence limits.; format: functional; settings: po

IC50 [2] [nM] | IC50 [3] [nM] | SMILES | ED50 (Mus musculus [1]) [mg/kg] | ED50 (Mus musculus [4]) [mg/kg] | further results
23 | 150 | Cl.Nc1ccc(C(=O)NCCCCN2CCN(c3nsc4ccccc34)CC2)cc1 | > 25 |  | 
9.4 | 1.6 | Cl.Nc1ccc(Cl)cc1C(=O)NCCCCN1CCN(c2nsc3ccccc23)CC1 | < 6 | 25 | 
12 | 1.3 | CC(C)(C)OC(=O)Nc1cccc(C(=O)NCCCCN2CCN(c3nsc4ccccc34)CC2)c1.Cl | > 25 |  | 
4.1 | 1.6 | COc1cccc(C(=O)NCCCCN2CCN(c3nsc4ccccc34)CC2)c1N.Cl | 2.2 | 20.3 | 
6.6 | 2.6 | Cl.Nc1cccc(C(=O)NCCCCN2CCN(c3nsc4ccccc34)CC2)c1 |  |  | 
69 | 6.8 | CCc1cc(Cl)c(OC)c(C(=O)NCCCCN2CCN(c3nsc4ccccc34)CC2)c1O.Cl | > 25 |  | 
49 | 1.7 | Cl.O=C(NCCCCN1CCN(c2nsc3ccccc23)CC1)c1cc(Cl)cc(Cl)c1 | > 25 |  | 
3.7 | 1.8 | Cl.[N-]=[N+]=Nc1ccccc1C(=O)NCCCCN1CCN(c2nsc3ccccc23)CC1 |  |  | ED50 (Mus musculus [5]): 25 mg/kg
540 | 26 | Cl.O=C(NCCCCN1CCN(c2nsc3ccccc23)CC1)c1ccc(/N=N/c2ccccc2)cc1 | > 25 |  | 
64 | 8.9 | Cc1cccc(N)c1C(=O)NCCCCN1CCN(c2nsc3ccccc23)CC1.Cl | > 25 |  | 
 | 5.8 | Cc1cccc(C(=O)NCCCCN2CCN(c3nsc4ccccc34)CC2)c1N.Cl | 5.4 | 37.6 | 
1.5 | 0.5 | Cl.Nc1c(F)cccc1C(=O)NCCCCN1CCN(c2nsc3ccccc23)CC1 | 0.9 | 14.3 | ED50 (Mus musculus [6]): 8.9 mg/kg; ED50 (Mus musculus [7]): 46.7 mg/kg; ED50 (Mus musculus [8]): 55.5 mg/kg
12 | 3.9 | Cl.O=C(NCCCCN1CCN(c2nsc3ccccc23)CC1)c1ccccc1O | 1 |  | ED50 (Mus musculus [9]): 21.5 mg/kg
 | 51 | CC(=O)Nc1ccc(C(=O)NCCCCN2CCN(c3nsc4ccccc34)CC2)cc1.Cl | > 25 | > 25 | 
23 | 6.3 | CCc1cc(Cl)c(O)c(C(=O)NCCCCN2CCN(c3nsc4ccccc34)CC2)c1OC.Cl | 25.5 |  | 
15 | 5.6 | Cl.O=C(NCCCCN1CCN(c2nsc3ccccc23)CC1)c1ccc(Cl)cc1 | 9.4 | > 25 | 
 | 14 | COc1c(Br)ccc(O)c1C(=O)NCCCCN1CCN(c2nsc3ccccc23)CC1.Cl | 4.7 | > 25 | 
74 | 12 | COc1ccc(Br)c(OC)c1C(=O)NCCCCN1CCN(c2nsc3ccccc23)CC1.Cl | > 25 |  | 
4.2 | 0.59 | Cl.Nc1cc(F)ccc1C(=O)NCCCCN1CCN(c2nsc3ccccc23)CC1 | 2.5 | 27.1 | 
180 | 30 | CCc1cc(Cl)c(OC)c(C(=O)NCCCCN2CCN(c3nsc4ccccc34)CC2)c1OC.Cl | 26 |  | 
1.2 | 2.3 | CN(CCCCN1CCN(c2nsc3ccccc23)CC1)C(=O)c1ccccc1N.Cl | > 12 |  | 
 | 2.3 | Cl.Nc1ccc(F)cc1C(=O)NCCCCN1CCN(c2nsc3ccccc23)CC1 | 2.2 | 31.8 | 

IC50 [2] [nM] | IC50 [3] [nM] | SMILES | ED50 (Mus musculus [1]) [mg/kg] | ED50 (Mus musculus [4]) [mg/kg] | further results
0.7 | 0.23 | CC(C)(C)OC(=O)Nc1ccc(C(=O)NCCCCN2CCN(c3nsc4ccccc34)CC2)cc1.Cl | > 25 |  | 
8.6 | 1.6 | CC(C)[C@@H](Nc1ccccc1C(=O)NCCCCN1CCN(c2nsc3ccccc23)CC1)C(=O)O.Cl | > 25 |  | 
120 | 16 | Cl.O=C(NCCCCN1CCN(c2nsc3ccccc23)CC1)c1c(O)ccc(Br)c1O | 6 | 28.8 | 
5.4 | 2.7 | CC(C)[C@H](Nc1ccccc1C(=O)NCCCCN1CCN(c2nsc3ccccc23)CC1)C(=O)O.Cl |  | 17.9 | ED50 (Mus musculus [6]): 26.9 mg/kg; ED50 (Mus musculus [7]): 59.9 mg/kg; ED50 (Mus musculus [8]): 44.5 mg/kg
9.1 | 1.5 | Cl.O=C(NCCCCN1CCN(c2nsc3ccccc23)CC1)c1ccc(C(F)(F)F)cc1 | 12.5 | > 25 | 
10 | 12 | CNc1ccccc1C(=O)NCCCCN1CCN(c2nsc3ccccc23)CC1.Cl | 5.8 | 15.6 | ED50 (Mus musculus [6]): 13.5 mg/kg; ED50 (Mus musculus [7]): 65 mg/kg; ED50 (Mus musculus [8]): 80.6 mg/kg
10 | 1.4 | COc1ccc(N)c(C(=O)NCCCCN2CCN(c3nsc4ccccc34)CC2)c1.Cl | 2.1 | > 50 | 
3.8 | 3.3 | Cl.Nc1ccccc1C(=O)NCCCCN1CCN(c2nsc3ccccc23)CC1 |  |  | ED50 (Mus musculus [10]): 192 mg/kg; ED50 (Mus musculus [11]): 1.5 mg/kg; ED50 (Mus musculus [12]): 10.1 mg/kg; ED50 (Mus musculus [13]): 10.2 mg/kg; ED50 (Mus musculus [14]): 91.1 mg/kg
4.2 | 1.6 | Cl.Nc1cccc(F)c1C(=O)NCCCCN1CCN(c2nsc3ccccc23)CC1 | 7.8 | 20.8 | 
5.2 | 2.1 | Cl.O=C(NCCCCN1CCN(c2nsc3ccccc23)CC1)c1ccccc1 | 1.1 | 21.5 | 
5.2 | 2 | CC(=O)Nc1ccccc1C(=O)NCCCCN1CCN(c2nsc3ccccc23)CC1.Cl | 4.1 | 22.3 | 
 | 1.4 | CCOC(=O)Nc1ccccc1C(=O)NCCCCN1CCN(c2nsc3ccccc23)CC1.Cl | 1.8 | 32.8 | 
20 | 3.8 | Cl.Nc1ccc([N+](=O)[O-])cc1C(=O)NCCCCN1CCN(c2nsc3ccccc23)CC1 | 19.6 |  | 
6.4 | 3.7 | Cl.O=C(NCCCCN1CCN(c2nsc3ccccc23)CC1)c1ccccc1[N+](=O)[O-] | 25 |  | 
520 | 68 | CC(C)(C)c1ccc(C(=O)NCCCCN2CCN(c3nsc4ccccc34)CC2)cc1.Cl |  | > 25 | 
26 | 15 | COc1ccc(Br)c(O)c1C(=O)NCCCCN1CCN(c2nsc3ccccc23)CC1.Cl | 1.5 | 14.3 | ED50 (Mus musculus [6]): 15.4 mg/kg; ED50 (Mus musculus [7]): 87.5 mg/kg; ED50 (Mus musculus [8]): 123 mg/kg
3.8 | 2.4 | Cl.NNc1ccccc1C(=O)NCCCCN1CCN(c2nsc3ccccc23)CC1 | 10.8 | 40.4 | 
9 | 2.3 | COc1ccc(C(=O)NCCCCN2CCN(c3nsc4ccccc34)CC2)cc1.Cl | 2.4 | > 25 | 
1.4 | 3.9 | CN(CCCCN1CCN(c2nsc3ccccc23)CC1)C(=O)c1ccccc1.Cl | 10 | 22.4 | 
12 | 2.3 | Cl.Nc1cc(C(F)(F)F)ccc1C(=O)NCCCCN1CCN(c2nsc3ccccc23)CC1 | 6.9 | > 50 | 
 | 3.4 | Cl.Nc1cccc(Cl)c1C(=O)NCCCCN1CCN(c2nsc3ccccc23)CC1 | > 25 |  | 

Source: ChEMBL document CHEMBL1129740, “Structure-activity relationships of a series of substituted benzamides: potent D2/5-HT2 antagonists and 5-HT1a agonists as neuroleptic agents” (J Med Chem, 1996)
